Consider 1 compound from article PMC12049818, “Identification of NUV-244 as a PNPLA3 I148M degrading small molecule” (iScience, 2025).

Data set [1] concerns Huh7 cells. The experiment in a line: Total nuclear count in Huh7 cells. Particulars: effective concentrations. The data set is classed as cell-based, human. The procedure:
Indeed, NUV-244 has no effect on total nuclear count at effective concentrations in Huh7 cells and we frequently observed mitotic cells in the Hoechst channel even after 24h incubation (data not shown). This indicates low toxicity of NUV-244 at effective concentrations. We validated this by recording the growth curves of different cell lines upon NUV-244 incubation and found no effects of 1μM or 5μM NUV-244 on the proliferative capacity of Hep3B cells, or Huh7 and LX-2 cells compared to DMSO treated cells (Figure 6A). PNPLA3 I148M expression has been reported to sensitize cells against lipotoxicity and to induce mitochondrial dysfunction.[32]^,[34]^,[35]^,[36]^,[37]
Assay plates were evaluated based on Z’ scores (>0.6) and signal-to-background ratio (>12) using Genedata Screener® for HTS and Condoseo modules (Genedata, Switzerland). Normalization, quality control, and fitting curves for EC50 determination of tested compounds were performed with Genedata Screener® for high-content screening and Genedata Condoseo modules (Genedata AG, Basel, Switzerland). More than 820K cpds were screened on 791 1536W plates in 11 runs covering three weeks of primary HTS. Automated image analysis routines were set up to quantify the number, morphology and intensity of nuclei, lipid droplets and the intensity of PNPLA3 I148M-tagRFP on lipid droplets. […]

Data set [2] has as its target T1, PNPLA2 (Homo sapiens, UniProt Q96AD5).
T1 sequence (Q96AD5 1-504): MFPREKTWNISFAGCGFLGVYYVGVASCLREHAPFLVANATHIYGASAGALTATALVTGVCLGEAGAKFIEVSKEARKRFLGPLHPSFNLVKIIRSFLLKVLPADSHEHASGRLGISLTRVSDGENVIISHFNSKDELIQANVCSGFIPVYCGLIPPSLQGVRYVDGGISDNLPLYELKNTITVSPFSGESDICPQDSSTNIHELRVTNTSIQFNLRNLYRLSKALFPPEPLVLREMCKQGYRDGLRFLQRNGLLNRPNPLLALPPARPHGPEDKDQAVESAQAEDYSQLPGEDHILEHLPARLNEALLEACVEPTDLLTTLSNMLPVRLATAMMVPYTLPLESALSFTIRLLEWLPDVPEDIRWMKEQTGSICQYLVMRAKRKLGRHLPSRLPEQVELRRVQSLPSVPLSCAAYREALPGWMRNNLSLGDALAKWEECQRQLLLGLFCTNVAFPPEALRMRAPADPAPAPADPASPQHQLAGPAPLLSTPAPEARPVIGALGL
The data set is described as follows: Huh7 PNPLA2 immunofluorescence counter assay (PNPLA2 on lipid droplets). Particulars: for EC50: read-out: EC50 Huh7, PNPLA2 IF. The format is cell-based. On the set-up: immunofluorescence against endogenous PNPLA2 on lipid droplets in Huh7 cells; endogenous in cells; host or cells: Huh7. The procedure:
These efforts led to the identification of NUV-244, a thiazolecarboxamide (Figure 2A).
Cells were fixed with 4% paraformaldehyde for 15 minutes at room temperature. Cells were blocked with 0.2 M glycine, 0.1 mg/mL saponin, and 30 mg/mL bovine serum albumin (BSA) (all Sigma Aldrich) in PBS for 1 hour. Cells were washed 1x with washing buffer (0,1 mg/ml saponin + 1 mg/ml Bovine serum albumin) using a Blue Washer (Blue Cat Bio). Mouse anti-human ADPN (PNPLA3, C-8, #sc-390252, Santa Cruz) and rabbit anti-human PNPLA2 (Sigma Aldrich, #HPA055173-25UL) primary antibodies and appropriate secondary antibodies conjugated with Alexa-Fluor 647 (Jackson ImmunoResearch) were used. All antibodies were diluted in 0.1 mg/ml Saponin + 1 mg/ml Bovine serum albumin. Incubation with primary antibodies was over night at 4°C. Cells were stained simultaneously with the secondary antibody and Hoechst 33342 (final 2 μg/ml, Biotium) for 1h at room temperature in the dark. For Staining of lipid droplets 38 nM BODIPY was used for 30 minutes at room temperature.
Images were acquired by an Opera Phenix confocal spinning disc microscope system (Revvity, Waltham, MA, USA) with a 20x or 40x water objective at 405 nm (Hoechst), 488 nm (BODIPY) and 647 nm. Quantification was carried out with the Harmony (Revvity, Waltham, MA, USA) or MetaXpress software (Molecular Devices). Normalization, quality control, and fitting curves for EC50 determination of tested compounds were performed with Genedata Screener® for high-content screening and Genedata Condoseo modules (Genedata AG, Basel, Switzerland).

Data set [3] has as its system Huh7 cells expressing PNPLA3 I148M-tagRFP. The experiment in a line: Lipid droplet dispersion / normalization of lipid droplet morphology in Huh7 PNPLA3 I148M-tagRFP cells. The data set is classed as cell-based, human. The text has this: During the HTS we observed that PNPLA3 I148M-tagRFP expression altered the morphology of lipid droplets compared to the Huh7 parental control cells. PNPLA3 I148M-tagRFP expression leads to clustering of large lipid droplets around the nucleus and a reduction of small cytoplasmic lipid droplets, which is reflected by changes (lowering) in the number of lipid droplets scorable by the lipid droplet detection algorithm per cell (Figures 4A and 4B, Video S1). Indeed, a role for PNPLA3 I148M in the regulation of lipid droplet morphology is known.[12]^,[13]^,[15]^,[16]^,[21]^,[33] We speculated that reduction of PNPLA3 I148M-tagRFP on lipid droplets of Huh7 cells should therefore restore lipid droplet morphology back to the WT situation in the parental cell line. For this we analyzed all hits at the retest stage in the primary assay. […]
Images were analyzed using Harmony (Revvity) and MetaXpress software (Molecular Devices, USA) to quantify lipid droplet morphology and PNPLA3 I148M-tagRFP intensity.
Assay plates were evaluated based on Z’ scores (>0.6) and signal-to-background ratio (>12) using Genedata Screener® for HTS and Condoseo modules (Genedata, Switzerland). […] Automated image analysis routines were set up to quantify the number, morphology and intensity of nuclei, lipid droplets and the intensity of PNPLA3 I148M-tagRFP on lipid droplets. […]

Usually EC50 stands for the concentration giving half of the maximal effect.

Like-named read-outs stand apart in the source and are kept apart here.

For the compound `Cc1cccc(Cc2nc(C)c(C(=O)Nc3cc(O)ccc3Cl)s2)c1` [NUV-244], in data set [1], the “effect on total nuclear count” value was “no effect”. Further, the “effect on PNPLA2 staining on lipid droplets” value in data set [2] (1μM, Huh7) is given as “no effect”. Also, the EC50 in data set [2] (HTS batch (hit)) is greater than 18 µM; in data set [2] (resynthesis batch), greater than 17 µM; in data set [3] (Homo sapiens, Huh-7, resynthesis, representative curve, Figure 4C, read-out: EC50 [M] Lipid droplet aggregates), 4.84e-07 M. Also, the “effect on PNPLA2 localization to lipid droplets” value in data set [2] (Huh7 cells, dose-response) is on record as “no effect”. Further, the “EC50 Huh7 PNPLA2 IF (resynthesis)” value in data set [2] (resynthesis batch, result in words) was “no activity”. Besides, in data set [3] (5μM for 24h, Huh7 expressing PNPLA3 I148M), the “appearance of small mobile lipid droplets (time-lapse)” value is reported as “partially restore”.
